Several values for one entry are separate records, joined by “and”; a condition that tells them apart may be missing. Equal entries are not always repeated. Toxic doses and inconclusive results are not listed.
Tested on: CD2F1 mice, L1210 leukemia ip, survival T/C
Assay: NCI In Vivo Anticancer Drug Screen. Data for tumor model L1210 Leukemia (intraperitoneal) in CD2F1 (CDF1) mice
Details: endpoint: mean survival time, higher = longer survival
Procedure, shortened: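 Read-out first: treated-group measurement over vehicle-control measurement, expressed as a ratio. Animals bore a transplanted tumor line and were dosed with compound or vehicle.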

[1] = dose: 100.0 mg/kg/injection, schedule: Q01DX009 (ip), vehicle: saline with Tween-80
[2] = dose: 200.0 mg/kg/injection, schedule: Q01DX009 (ip), vehicle: saline with Tween-80
[3] = dose: 100.0 mg/kg/injection, schedule: Q04DX003 (ip), vehicle: saline with Tween-80
[4] = dose: 200.0 mg/kg/injection, schedule: Q04DX003 (ip), vehicle: saline with Tween-80
[5] = dose: 400.0 mg/kg/injection, schedule: Q04DX003 (ip), vehicle: saline with Tween-80
[6] = dose: 400.0 mg/kg/injection, schedule: Q01DX009 (ip), vehicle: saline with Tween-80
[7] = dose: 100.0 mg/kg/injection, schedule: Q04DX002 (ip), vehicle: saline with Tween-80
[8] = dose: 200.0 mg/kg/injection, schedule: Q04DX002 (ip), vehicle: saline with Tween-80
[9] = dose: 400.0 mg/kg/injection, schedule: Q04DX002 (ip), vehicle: saline with Tween-80
[10] = dose: 100.0 mg/kg/injection, schedule: Q01DX001 (ip), vehicle: saline with Tween-80
[11] = dose: 200.0 mg/kg/injection, schedule: Q01DX001 (ip), vehicle: saline with Tween-80
[12] = dose: 400.0 mg/kg/injection, schedule: Q01DX001 (ip), vehicle: saline with Tween-80

With `Clc1ccc(CCc2ccc(Cl)cc2)cc1` the T/C (dose: 50.0 mg/kg/injection, schedule: Q01DX009 (ip), vehicle: saline with Tween-80) was 102 % of control, the T/C [1] was 98 % of control and the T/C [2] was 102 % of control.

With `Nc1nc2c(c(=O)[nH]1)N1CCN(c3ccc(C(=O)NC(CCC(=O)O)C(=O)O)cc3)CC1CN2` (stereo unspecified) the T/C (dose: 100.0 mg/kg/injection, schedule: Q01DX001 (ip), vehicle: sodium bicarbonate) was 100 % of control, the T/C (dose: 200.0 mg/kg/injection, schedule: Q01DX001 (ip), vehicle: sodium bicarbonate) was 100 % of control and the T/C (dose: 400.0 mg/kg/injection, schedule: Q01DX001 (ip), vehicle: sodium bicarbonate) was 86 % of control.

In the case of `CC(C)CC(Br)C(=O)NCC(=O)NC(Cc1ccccc1)C(=O)O` (stereo unspecified), the T/C [3] is reported as 106 % of control, the T/C [4] is reported as 97 % of control and the T/C [5] is reported as 96 % of control.

With `NC(CSS(=O)(=O)O)=NCCc1cccs1` the T/C (dose: 12.5 mg/kg/injection, schedule: Q04DX002 (ip), vehicle: saline with Tween-80) was 97 % of control and the T/C (dose: 25.0 mg/kg/injection, schedule: Q04DX002 (ip), vehicle: saline with Tween-80) was 105 % of control.

With `Cn1sc2ccccc2c1=S` the T/C [3] was 101 % of control, the T/C [4] was 96 % of control and the T/C [5] was 95 % of control.

In the case of `COC(=O)CC(=O)CBr`, the T/C (dose: 5.0 mg/kg/injection, schedule: Q01DX001 (ip), vehicle: saline with Tween-80) is reported as 95 % of control, the T/C (dose: 5.0 mg/kg/injection, schedule: Q01DX009 (ip), vehicle: saline with Tween-80) is reported as 100 % of control and the T/C (dose: 10.0 mg/kg/injection, schedule: Q01DX001 (ip), vehicle: saline with Tween-80) is reported as 95 % of control. The T/C (dose: 10.0 mg/kg/injection, schedule: Q01DX009 (ip), vehicle: saline with Tween-80) was 97 % of control, the T/C (dose: 20.0 mg/kg/injection, schedule: Q01DX001 (ip), vehicle: saline with Tween-80) was 95 % of control and the T/C (dose: 20.0 mg/kg/injection, schedule: Q01DX009 (ip), vehicle: saline with Tween-80) was 97 % of control.

With `Nc1ncnc(N2C(=S)OC3C(O)C(CO)OC32)c1N` (stereo unspecified) the T/C (dose: 12.5 mg/kg/injection, schedule: Q01DX005 (ip), vehicle: water) was 92 % of control, the T/C (dose: 25.0 mg/kg/injection, schedule: Q01DX005 (ip), vehicle: water) was 88 % of control and the T/C (dose: 50.0 mg/kg/injection, schedule: Q01DX005 (ip), vehicle: water) was 95 % of control. For the same compound, the T/C (dose: 100.0 mg/kg/injection, schedule: Q01DX005 (ip), vehicle: water) was 95 % of control and the T/C (dose: 200.0 mg/kg/injection, schedule: Q01DX005 (ip), vehicle: water) was 90 % of control.

For `c1cc(-c2cc3ccc(C4=NCCN4)cc3[nH]2)ccc1C1=NCCN1`, the T/C (dose: 3.12 mg/kg/injection, schedule: Q01DX009 (ip), vehicle: saline) was 111 % of control, the T/C (dose: 3.12 mg/kg/injection, schedule: Q01DX009 (ip), vehicle: suspension in saline) was 112 % of control and the T/C (dose: 6.25 mg/kg/injection, schedule: Q01DX009 (ip), vehicle: saline) was 124 % of control. The T/C (dose: 6.25 mg/kg/injection, schedule: Q01DX009 (ip), vehicle: suspension in saline) was 118 % of control, the T/C (dose: 12.5 mg/kg/injection, schedule: Q01DX009 (ip), vehicle: saline) was 119 % of control and the T/C (dose: 12.5 mg/kg/injection, schedule: Q01DX009 (ip), vehicle: suspension in saline) was 283 % of control. For the same compound, the T/C (dose: 25.0 mg/kg/injection, schedule: Q01DX009 (ip), vehicle: suspension in saline) was 295 % of control and 336 % of control and 337 % of control and the T/C (dose: 50.0 mg/kg/injection, schedule: Q01DX009 (ip), vehicle: saline) was 88 % of control.

With `CC(SCc1ccccc1)C(NC(=O)c1ccccc1)C(=O)O` (stereo unspecified) the T/C [1] was 93 % of control, the T/C [3] was 98 % of control and the T/C [2] was 90 % of control. The T/C [4] was 98 % of control, the T/C [6] was 93 % of control and the T/C [5] was 101 % of control.

For `C=Cc1cnc(N)nc1-c1ccc(OC)cc1`, the T/C [7] was 101 % of control, the T/C [8] was 96 % of control and the T/C [9] was 96 % of control.

In the case of `Cc1ccc(-c2nc(SCc3ccc(Cl)cc3)[nH]c(=O)c2CCO)cc1`, the T/C (dose: 100.0 mg/kg/injection, schedule: Q04DX003 (ip), vehicle: Klucel (hydroxypropylcellulose) (HPC)) is reported as 96 % of control and the T/C (dose: 200.0 mg/kg/injection, schedule: Q04DX003 (ip), vehicle: Klucel (hydroxypropylcellulose) (HPC)) is reported as 87 % of control.

In the case of `CCCCCCCCCCCCCCCCCC(=O)N1CC[N+](C)(C)CC1`, the T/C (dose: 75.0 mg/kg/injection, schedule: Q01DX001 (ip), vehicle: saline) is reported as 101 % of control, the T/C (dose: 150.0 mg/kg/injection, schedule: Q01DX001 (ip), vehicle: saline) is reported as 100 % of control and the T/C (dose: 300.0 mg/kg/injection, schedule: Q01DX001 (ip), vehicle: saline) is reported as 107 % of control.

In the case of `NC(Cc1c[nH]c2ccccc12)C(=O)O` (stereo unspecified), the T/C (dose: 50.0 mg/kg/injection, schedule: Q01DX001 (ip), vehicle: saline with Tween-80) is reported as 98 % of control, the T/C [10] is reported as 98 % of control and the T/C [11] is reported as 101 % of control.

With `CC(C#N)(Nc1ccccc1)c1ccccn1` (stereo unspecified) the T/C [3] was 101 % of control, the T/C [4] was 93 % of control and the T/C [5] was 89 % of control.

With `COC(=O)C1(C)CCCC2(C)C1CCC1(O)C(O)C(C(C)C)=CCC21` (stereo unspecified) the T/C [3] was 92 % of control, the T/C [4] was 93 % of control and the T/C [5] was 92 % of control.

`O=C(O)c1c(Cl)ccc(F)c1Cl` was tested, and the T/C [7] was 105 % of control, the T/C [8] was 105 % of control and the T/C [9] was 94 % of control.

`[O-][N+](=C(c1ccccc1)c1ccccc1)c1ccccc1` was tested, and the T/C (dose: 75.0 mg/kg/injection, schedule: Q01DX009 (ip), vehicle: saline with Tween-80) was 96 % of control, the T/C (dose: 150.0 mg/kg/injection, schedule: Q01DX009 (ip), vehicle: saline with Tween-80) was 94 % of control and the T/C (dose: 300.0 mg/kg/injection, schedule: Q01DX009 (ip), vehicle: saline with Tween-80) was 94 % of control.

`O=C(Nc1ccc2ccccc2c1-c1c(NC(=O)c2ccccc2)ccc2ccccc12)c1ccccc1` was tested, and the T/C [10] was 91 % of control and the T/C [12] was 91 % of control.

In the case of `COC(=O)CCCCC(C)=O`, the T/C [1] is reported as 101 % of control, the T/C (dose: 100.0 mg/kg/injection, schedule: Q04DX003 (ip), vehicle: saline sonified) is reported as 98 % of control and the T/C [2] is reported as 101 % of control. For the same compound, the T/C (dose: 200.0 mg/kg/injection, schedule: Q04DX003 (ip), vehicle: saline sonified) was 98 % of control, the T/C [6] was 98 % of control and the T/C (dose: 400.0 mg/kg/injection, schedule: Q04DX003 (ip), vehicle: saline sonified) was 102 % of control.

For `O=C(O)COc1ccc(-c2ccccc2)cc1`, the T/C [3] was 104 % of control, the T/C [4] was 90 % of control and the T/C [5] was 101 % of control.

In the case of `COc1ccccc1C(=O)CC(O)(C(F)(F)F)C(F)(F)F`, the T/C [10] is reported as 95 % of control, the T/C [11] is reported as 100 % of control and the T/C [12] is reported as 109 % of control.

`Nc1nc2ccc(Cl)cc2[nH]1` was tested, and the T/C (dose: 50.0 mg/kg/injection, schedule: Q01DX009 (ip), vehicle: Klucel (hydroxypropylcellulose) (HPC)) was 93 % of control and the T/C (dose: 100.0 mg/kg/injection, schedule: Q01DX009 (ip), vehicle: Klucel (hydroxypropylcellulose) (HPC)) was 91 % of control.

For `Cc1ccc(C(=O)c2nnc(C(=O)c3ccc(C)cc3)nn2)cc1`, the T/C [3] was 92 % of control, the T/C [4] was 92 % of control and the T/C [5] was 86 % of control.

In the case of `Brc1ccc2c(c1)Cc1cc(N=Cc3ccc4c(c3)OCO4)ccc1-2`, the T/C (dose: 100.0 mg/kg/injection, schedule: Q01DX001 (ip), vehicle: carboxymethylcellulose (CMC)) is reported as 97 % of control, the T/C (dose: 200.0 mg/kg/injection, schedule: Q01DX001 (ip), vehicle: carboxymethylcellulose (CMC)) is reported as 94 % of control and the T/C (dose: 400.0 mg/kg/injection, schedule: Q01DX001 (ip), vehicle: carboxymethylcellulose (CMC)) is reported as 100 % of control.

With `CCC(=O)O.CCC(=O)O.CCC(=O)O.CCC(=O)O.O=P1(N(CCCl)CCCl)NCCCO1.O=P1(N(CCCl)CCCl)NCCCO1.[Rh].[Rh]` (stereo unspecified) the T/C (dose: 0.5 mg/kg/injection, schedule: Q01DX001 (ip), vehicle: water) was 92 % of control, the T/C (dose: 1.0 mg/kg/injection, schedule: Q01DX001 (ip), vehicle: water) was 92 % of control and the T/C (dose: 2.0 mg/kg/injection, schedule: Q01DX001 (ip), vehicle: water) was 102 % of control. For the same compound, the T/C (dose: 4.0 mg/kg/injection, schedule: Q01DX001 (ip), vehicle: water) was 107 % of control.

`CCCCCCCCCCCCCCCCOc1ccccc1CNc1cc(C(F)(F)F)ccc1Cl` was tested, and the T/C (dose: 100.0 mg/kg/injection, schedule: Q01DX009 (ip), vehicle: other) was 89 % of control, the T/C (dose: 200.0 mg/kg/injection, schedule: Q01DX009 (ip), vehicle: other) was 103 % of control and the T/C (dose: 400.0 mg/kg/injection, schedule: Q01DX009 (ip), vehicle: other) was 91 % of control.

From PubChem BioAssay AID256 (DTP/NCI, 2004)
